Patent US20020137929A1, “1 - (3-heterocyclylphenyl) isothiourea, -isourea, -guanidine and -amidine herbicidal agents” (Intellectual Property Department, BASF Aktiengesellschaft, priority 1998, published 2002)

Columns and labels:
[1] = system: SAGPY (Arrowhead (Pygmaea)); assay: Postemergence weed control under flooded paddy conditions; format: in vivo, Sagittaria pygmaea; details: postemergence weeds, 3-4 weeks after treatment
How it was run: (§1)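 Herbicidal effect is judged by eye on a 0–9 scale versus control, 3–4 weeks after dosing. Dosing is into flood water kept 1.5–3 cm over the soil, at about 0.0313–0.500 kg/ha in aqueous/acetone 50/50 v/v, on 3–5 cm weeds and 1.5–2.5-leaf rice seedlings.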

[2] = system: ECHORC (Watergrass (Calif.)); assay: Preemergence weed control under flooded paddy conditions; format: in vivo, Echinochloa oryzoides; details: rated 3-4 weeks after treatment
How it was run: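 Ratings on a 0-9 visual scale cover stand, vigor, malformation, size, chlorosis and overall appearance relative to a control, taken three to four weeks post-treatment. Application was into flood water over freshly sown silt loam at roughly 0.0313 to 0.500 kg/ha.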

CYPSE (Flatsedge) = assay: as above; format: in vivo, Cyperus serotinus; details: rated 3-4 weeks after treatment
How it was run: (§2)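 Silt loam, seeds in top 0.5 cm; flood held 1.5-3 cm; test cpd as acetone/water 50/50 into flood water, ~0.0313-0.500 kg/ha a.i.; greenhouse 3-4 wk; visual 0-9 score vs control.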

[3] = system: SAGPY (Arrowhead (Pygmaea)); assay: as above; format: in vivo, Sagittaria pygmaea; details: rated 3-4 weeks after treatment
How it was run: as §2

[4] = system: TRZAWR (Wheat, Winter, cv Riband); assay: Postemergence herbicidal evaluation; format: in vivo, Triticum aestivum
How it was run: (§3)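 First, seedlings were raised for around two weeks. Next, test material in 50/50 acetone/water containing 0.5% TWEEN 20 was sprayed through a nozzle at 40 psi, equivalent to about 0.0156–0.500 kg/ha. Finally, after 4–5 weeks in the greenhouse, plants were rated 0–9.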

GALAP (Galium) [5] = assay: Preemergence herbicidal evaluation; format: in vivo, Galium aparine; details: rated 4-5 weeks after treatment
How it was run: (§4)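 Each species is sown separately in potting soil over roughly an inch of soil before any emergence. The soil surface then receives an aqueous acetone spray delivering about 0.0156 to 0.500 kg/ha of compound. After four to five weeks, injury is scored from 0 to 9 relative to a control.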

[6] = system: ECHORC (Watergrass (Calif.)); assay: Postemergence weed control under flooded paddy conditions; format: in vivo, Echinochloa oryzoides; details: postemergence weeds, 3-4 weeks after treatment
How it was run: as §1

MOOVA (Monochoria) = assay: Preemergence weed control under flooded paddy conditions; format: in vivo, Monochoria vaginalis; details: rated 3-4 weeks after treatment
How it was run: as §2

SETVI (Foxtail, Green) = assay: Preemergence herbicidal evaluation; format: in vivo, Setaria viridis; details: rated 4-5 weeks after treatment
How it was run: as §4

AMBEL (Ragweed, Common) = assay: Postemergence herbicidal evaluation; format: in vivo, Ambrosia artemisifolia
How it was run: as §3

GALAP (Galium) [7] = assay: Postemergence herbicidal evaluation; format: in vivo, Galium aparine
How it was run: as §3

[8] = system: GLXMAW (Soybean, Williams); assay: Postemergence herbicidal evaluation; format: in vivo, Glycine max, (L.) Merr. cv Williams
How it was run: as §3

CASOB (Sicklepod) = assay: Postemergence herbicidal evaluation; format: in vivo, Cassia obtusifolia
How it was run: as §3

ORYSAT (Rice, Tebonnet) = assay: Preemergence herbicidal evaluation; format: in vivo, Oryza sativa, (L.) Tebonnet; details: rated 4-5 weeks after treatment
How it was run: as §4

Cn1c(C(F)(F)F)cc(=O)n(-c2cc(N=C3SCC(=O)N3CCC(=O)O)c(Cl)cc2F)c1=O [Compound 31, 2-{{2-Chloro-5-[3,6-dihydro-3-methyl-2,6-dioxo-4-(trifluoromethyl)-1(2H)-pyrimidinyl]-4-fluoro-phenyl}imino}-4-oxo-3-thiazolidinepropionic acid]
2.5: Herbicidal rating MOOVA (MOOVA (Monochoria); 0.2500 kg/ha)
9.0: Preemergence herbicidal rating SETVI (SETVI (Foxtail, Green); rate 0.1250 kg/ha) | Preemergence herbicidal rating SETVI (SETVI (Foxtail, Green); rate 0.2500 kg/ha)
1.0: Herbicidal rating ECHORC ([2]; 0.0625 kg/ha) | Herbicidal rating ECHORC ([6]; rate 0.0625 kg/ha) | Preemergence herbicidal rating SETVI (SETVI (Foxtail, Green); rate 0.0625 kg/ha) | Postemergence herbicidal rating GALAP (GALAP (Galium) [7]; Rate 0.0315 kg/ha)
2.0: Herbicidal rating ECHORC ([2]; 0.1250 kg/ha) | Herbicidal rating ECHORC ([6]; rate 0.1250 kg/ha) | Postemergence herbicidal rating AMBEL (AMBEL (Ragweed, Common); Rate 0.0315 kg/ha) | Preemergence herbicidal rating ORYSAT (ORYSAT (Rice, Tebonnet); rate 0.1250 kg/ha)
7.0: Postemergence herbicidal rating AMBEL (AMBEL (Ragweed, Common); Rate 0.0630 kg/ha) | Postemergence herbicidal rating GLXMAW ([8]; Rate 0.0630 kg/ha)
3.0: Postemergence herbicidal rating GALAP (GALAP (Galium) [7]; Rate 0.0630 kg/ha)
5.0: Herbicidal rating ECHORC ([2]; 0.2500 kg/ha) | Postemergence herbicidal rating TRZAWR ([4]; Rate 0.0158 kg/ha) | Herbicidal rating ECHORC ([6]; rate 0.2500 kg/ha)
5.5: Postemergence herbicidal rating TRZAWR ([4]; Rate 0.0315 kg/ha)
6.5: Postemergence herbicidal rating TRZAWR ([4]; Rate 0.0630 kg/ha) | Postemergence herbicidal rating GLXMAW ([8]; Rate 0.0158 kg/ha) | Postemergence herbicidal rating GLXMAW ([8]; Rate 0.0315 kg/ha)
6.0: Preemergence herbicidal rating GALAP (GALAP (Galium) [5]; rate 0.2500 kg/ha) | Preemergence herbicidal rating ORYSAT (ORYSAT (Rice, Tebonnet); rate 0.2500 kg/ha)
0.0: Herbicidal rating SAGPY ([1]; rate 0.0625 kg/ha) | Herbicidal rating SAGPY ([1]; rate 0.1250 kg/ha) | Herbicidal rating SAGPY ([1]; rate 0.2500 kg/ha) | Herbicidal rating CYPSE (CYPSE (Flatsedge); 0.0625 kg/ha) | Herbicidal rating CYPSE (CYPSE (Flatsedge); 0.1250 kg/ha) | Herbicidal rating CYPSE (CYPSE (Flatsedge); 0.2500 kg/ha) | Herbicidal rating SAGPY ([3]; 0.0625 kg/ha) | Herbicidal rating SAGPY ([3]; 0.1250 kg/ha) | Herbicidal rating SAGPY ([3]; 0.2500 kg/ha) | Preemergence herbicidal rating GALAP (GALAP (Galium) [5]; rate 0.0625 kg/ha) | Herbicidal rating MOOVA (MOOVA (Monochoria); 0.0625 kg/ha) | Herbicidal rating MOOVA (MOOVA (Monochoria); 0.1250 kg/ha) | Postemergence herbicidal rating AMBEL (AMBEL (Ragweed, Common); Rate 0.0158 kg/ha) | Postemergence herbicidal rating GALAP (GALAP (Galium) [7]; Rate 0.0158 kg/ha) | Postemergence herbicidal rating CASOB (CASOB (Sicklepod); Rate 0.0158 kg/ha) | Postemergence herbicidal rating CASOB (CASOB (Sicklepod); Rate 0.0315 kg/ha) | Postemergence herbicidal rating CASOB (CASOB (Sicklepod); Rate 0.0630 kg/ha) | Preemergence herbicidal rating ORYSAT (ORYSAT (Rice, Tebonnet); rate 0.0625 kg/ha)

Cn1c(C(F)(F)F)cc(=O)n(-c2cc(N=C3SCC(=O)N3CC(=O)NS(C)(=O)=O)c(Cl)cc2F)c1=O [Compound 38, 2-{{2-Chloro-5-[3,6-dihydro-3-methyl-2,6-dioxo-4-(trifluoromethyl)-1(2H)-pyrimidinyl]-4-fluoro-phenyl}imino}-N-(methylsulfonyl)-4-oxo-3-thiazolidineacetamide]
3.0: Herbicidal rating SAGPY ([1]; rate 0.0625 kg/ha) | Herbicidal rating CYPSE (CYPSE (Flatsedge); 0.2500 kg/ha) | Herbicidal rating SAGPY ([3]; 0.0625 kg/ha) | Preemergence herbicidal rating SETVI (SETVI (Foxtail, Green); rate 0.0625 kg/ha) | Postemergence herbicidal rating AMBEL (AMBEL (Ragweed, Common); Rate 0.0156 kg/ha) | Postemergence herbicidal rating GALAP (GALAP (Galium) [7]; Rate 0.0625 kg/ha) | Postemergence herbicidal rating GALAP (GALAP (Galium) [7]; Rate 0.1250 kg/ha) | Postemergence herbicidal rating CASOB (CASOB (Sicklepod); Rate 0.1250 kg/ha) | Postemergence herbicidal rating CASOB (CASOB (Sicklepod); Rate 0.2500 kg/ha)
9.0: Herbicidal rating SAGPY ([1]; rate 0.2500 kg/ha) | Herbicidal rating SAGPY ([3]; 0.2500 kg/ha) | Preemergence herbicidal rating GALAP (GALAP (Galium) [5]; rate 0.2500 kg/ha) | Herbicidal rating MOOVA (MOOVA (Monochoria); 0.0313 kg/ha) | Herbicidal rating MOOVA (MOOVA (Monochoria); 0.0625 kg/ha) | Herbicidal rating MOOVA (MOOVA (Monochoria); 0.1250 kg/ha) | Herbicidal rating MOOVA (MOOVA (Monochoria); 0.2500 kg/ha) | Preemergence herbicidal rating SETVI (SETVI (Foxtail, Green); rate 0.2500 kg/ha) | Postemergence herbicidal rating AMBEL (AMBEL (Ragweed, Common); Rate 0.1250 kg/ha) | Postemergence herbicidal rating AMBEL (AMBEL (Ragweed, Common); Rate 0.2500 kg/ha)
4.0: Herbicidal rating SAGPY ([1]; rate 0.1250 kg/ha) | Herbicidal rating ECHORC ([2]; 0.1250 kg/ha) | Herbicidal rating SAGPY ([3]; 0.1250 kg/ha) | Herbicidal rating ECHORC ([6]; rate 0.1250 kg/ha)
8.5: Postemergence herbicidal rating GLXMAW ([8]; Rate 0.1250 kg/ha) | Postemergence herbicidal rating GLXMAW ([8]; Rate 0.2500 kg/ha)
8.0: Postemergence herbicidal rating TRZAWR ([4]; Rate 0.1250 kg/ha) | Postemergence herbicidal rating TRZAWR ([4]; Rate 0.2500 kg/ha) | Preemergence herbicidal rating GALAP (GALAP (Galium) [5]; rate 0.1250 kg/ha) | Postemergence herbicidal rating GALAP (GALAP (Galium) [7]; Rate 0.2500 kg/ha) | Postemergence herbicidal rating GLXMAW ([8]; Rate 0.0625 kg/ha)
2.0: Herbicidal rating ECHORC ([2]; 0.0625 kg/ha) | Herbicidal rating ECHORC ([6]; rate 0.0625 kg/ha) | Postemergence herbicidal rating CASOB (CASOB (Sicklepod); Rate 0.0625 kg/ha) | Preemergence herbicidal rating ORYSAT (ORYSAT (Rice, Tebonnet); rate 0.2500 kg/ha)
6.5: Postemergence herbicidal rating TRZAWR ([4]; Rate 0.0625 kg/ha) | Postemergence herbicidal rating GLXMAW ([8]; Rate 0.0156 kg/ha) | Postemergence herbicidal rating GLXMAW ([8]; Rate 0.0313 kg/ha)
0.0: Herbicidal rating SAGPY ([1]; rate 0.0313 kg/ha) | Herbicidal rating ECHORC ([2]; 0.0313 kg/ha) | Herbicidal rating CYPSE (CYPSE (Flatsedge); 0.0313 kg/ha) | Herbicidal rating CYPSE (CYPSE (Flatsedge); 0.0625 kg/ha) | Herbicidal rating CYPSE (CYPSE (Flatsedge); 0.1250 kg/ha) | Herbicidal rating SAGPY ([3]; 0.0313 kg/ha) | Preemergence herbicidal rating GALAP (GALAP (Galium) [5]; rate 0.0313 kg/ha) | Herbicidal rating ECHORC ([6]; rate 0.0313 kg/ha) | Preemergence herbicidal rating SETVI (SETVI (Foxtail, Green); rate 0.0313 kg/ha) | Postemergence herbicidal rating GALAP (GALAP (Galium) [7]; Rate 0.0156 kg/ha) | Postemergence herbicidal rating CASOB (CASOB (Sicklepod); Rate 0.0156 kg/ha) | Preemergence herbicidal rating ORYSAT (ORYSAT (Rice, Tebonnet); rate 0.0313 kg/ha) | Preemergence herbicidal rating ORYSAT (ORYSAT (Rice, Tebonnet); rate 0.0625 kg/ha) | Preemergence herbicidal rating ORYSAT (ORYSAT (Rice, Tebonnet); rate 0.1250 kg/ha)
5.5: Postemergence herbicidal rating TRZAWR ([4]; Rate 0.0313 kg/ha)
7.0: Herbicidal rating ECHORC ([2]; 0.2500 kg/ha) | Herbicidal rating ECHORC ([6]; rate 0.2500 kg/ha) | Preemergence herbicidal rating SETVI (SETVI (Foxtail, Green); rate 0.1250 kg/ha)
5.0: Postemergence herbicidal rating TRZAWR ([4]; Rate 0.0156 kg/ha) | Preemergence herbicidal rating GALAP (GALAP (Galium) [5]; rate 0.0625 kg/ha) | Postemergence herbicidal rating AMBEL (AMBEL (Ragweed, Common); Rate 0.0313 kg/ha) | Postemergence herbicidal rating AMBEL (AMBEL (Ragweed, Common); Rate 0.0625 kg/ha)
1.0: Postemergence herbicidal rating GALAP (GALAP (Galium) [7]; Rate 0.0313 kg/ha) | Postemergence herbicidal rating CASOB (CASOB (Sicklepod); Rate 0.0313 kg/ha)
